According to patent US20080051419A1, “AMINE DERIVATIVES USEFUL AS ANTICANCER AGENTS” (PFIZER INC., priority 2006, published 2008):
Like-named read-outs stand apart in the source and are kept apart here.

Molecular target: T1, Akt1 (Homo sapiens, UniProt P31749, S473D)
T1 construct: The version of Akt used in these studies lacks the pleckstrin homology (PH) domain
Assay: Akt1 kinase assay, fluorescence polarization (IMAP)
Type: biochemical
In short: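 His-tagged Akt1 lacking the PH domain, Thr308-prephosphorylated, 1.5 ng per reaction, with 4 μM ATP and 40 nM TAMRA-Crosstide (solution concentrations) in Tris pH 7.5/MgCl2/DTT buffer. Incubated 30 min at ambient temperature; IMAP fluorescence polarization read (544/615 nm). IC50 after subtraction of no-enzyme background.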

[1] = Table 1, concentration bins, read-out: Concentration Range at which exemplary compounds of formula I inhibit Akt kinase activity
[2] = average Akt kinase activity (IC50), read-out: Avg Akt kinase, μM (50% inhibition)

T1 sequence (P31749 118-480 S473D limits assumed, species assumed): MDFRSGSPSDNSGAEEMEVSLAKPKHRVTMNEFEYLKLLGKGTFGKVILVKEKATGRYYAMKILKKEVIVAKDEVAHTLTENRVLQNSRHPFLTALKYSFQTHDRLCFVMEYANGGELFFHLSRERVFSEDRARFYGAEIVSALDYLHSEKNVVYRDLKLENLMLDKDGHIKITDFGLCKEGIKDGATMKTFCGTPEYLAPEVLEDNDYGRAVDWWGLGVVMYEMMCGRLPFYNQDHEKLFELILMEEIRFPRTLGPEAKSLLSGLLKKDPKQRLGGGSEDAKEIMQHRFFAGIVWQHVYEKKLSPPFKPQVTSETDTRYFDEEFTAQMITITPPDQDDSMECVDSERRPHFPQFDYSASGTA

SMILES | IC50 [1] [µM] | IC50 [2] [µM]
N#Cc1c[nH]c2ncnc(N3CC[C@](N)(CNC(=O)c4ccc(F)cc4)C3)c12 [Example 94] | 0.00251 to 0.01 | 0.00923
CCCc1c[nH]c2ncnc(N3CC[C@@](N)(CNC(=O)c4cc(C)on4)C3)c12 [Example 95, N-{[(3R)-3-amino-1-(5-propyl-7H-pyrrolo[2,3-d]pyrimidin-4-yl)pyrrolidin-3-yl]methyl}-5-methylisoxazole-3-carboxamide] | 0.00251 to 0.01 | 0.00433
N#Cc1c[nH]c2ncnc(N3CC[C@](N)(CNC(=O)c4ccc(F)cc4F)C3)c12 [Example 96, N-{[(3S)-3-amino-1-(5-cyano-7H-pyrrolo[2,3-d]pyrimidin-4-yl)pyrrolidin-3-yl]methyl}-2,4-difluorobenzamide] | 0.00251 to 0.01 | 0.00771
Cc1c[nH]c2ncnc(N3CC[C@](N)(CNC(=O)c4ccc(F)cc4F)C3)c12 [Example 97, N-{[(3S)-3-amino-1-(5-methyl-7H-pyrrolo[2,3-d]pyrimidin-4-yl)pyrrolidin-3-yl]methyl}-2,4-difluorobenzamide] | 0.00025 to 0.0025 | 0.000979
CCc1c[nH]c2ncnc(N3CC[C@](N)(CNC(=O)c4ccccc4F)C3)c12 [Example 98, N-{[(3S)-3-amino-1-(5-ethyl-7H-pyrrolo[2,3-d]pyrimidin-4-yl)pyrrolidin-3-yl]methyl}-2-fluorobenzamide] | 0.00025 to 0.0025 | 0.000683
N#Cc1c[nH]c2ncnc(N3CC[C@](N)(CNC(=O)c4ccc(Cl)cc4F)C3)c12 [Example 99, N-{[(3S)-3-amino-1-(5-cyano-7H-pyrrolo[2,3-d]pyrimidin-4-yl)pyrrolidin-3-yl]methyl}-4-chloro-2-fluorobenzamide] | 0.0101 to 0.1 | 0.0186
Cc1c[nH]c2ncnc(N3CC[C@](N)(CNC(=O)c4ccc(F)cc4Cl)C3)c12 [Example 100, N-{[(3S)-3-amino-1-(5-methyl-7H-pyrrolo[2,3-d]pyrimidin-4-yl)pyrrolidin-3-yl]methyl}-2-chloro-4-fluorobenzamide] | 0.00251 to 0.01 | 0.00972
Cc1c[nH]c2ncnc(N3CC[C@](N)(CNC(=O)c4cc(F)ccc4F)C3)c12 [Example 101, N-{[(3S)-3-amino-1-(5-methyl-7H-pyrrolo[2,3-d]pyrimidin-4-yl)pyrrolidin-3-yl]methyl}-2,5-difluorobenzamide] | 0.0101 to 0.1 | 0.015
Cc1c[nH]c2ncnc(N3CC[C@](N)(CNC(=O)c4ccc(Cl)cc4F)C3)c12 [Example 102, N-{[(3S)-3-amino-1-(5-methyl-7H-pyrrolo[2,3-d]pyrimidin-4-yl)pyrrolidin-3-yl]methyl}-4-chloro-2-fluorobenzamide] | 0.0101 to 0.1 | 0.014
CCc1c[nH]c2ncnc(N3CC[C@](N)(CNC(=O)c4ccc(Cl)cc4F)C3)c12 [Example 103, N-{[(3S)-3-amino-1-(5-ethyl-7H-pyrrolo[2,3-d]pyrimidin-4-yl)pyrrolidin-3-yl]methyl}-4-chloro-2-fluorobenzamide] | 0.00251 to 0.01 | 0.00487
N[C@]1(CNC(=O)c2cccc(F)c2)CCN(c2ncnc3[nH]cc(Cl)c23)C1 [Example 104, N-{[(3S)-3-amino-1-(5-chloro-7H-pyrrolo[2,3-d]pyrimidin-4-yl)pyrrolidin-3-yl]methyl}-3-fluorobenzamide] | 0.00251 to 0.01 | 0.00674
CCc1c[nH]c2ncnc(N3CC[C@](N)(CNC(=O)c4cccc(F)c4)C3)c12 [Example 105, N-{[(3S)-3-amino-1-(5-ethyl-7H-pyrrolo[2,3-d]pyrimidin-4-yl)pyrrolidin-3-yl]methyl}-3-fluorobenzamide] | 0.0101 to 0.1 | 0.0107
N[C@]1(CNC(=O)c2cc(F)ccc2F)CCN(c2ncnc3[nH]cc(Cl)c23)C1 [Example 106, N-{[(3S)-3-amino-1-(5-chloro-7H-pyrrolo[2,3-d]pyrimidin-4-yl)pyrrolidin-3-yl]methyl}-2,5-difluorobenzamide] | 0.00025 to 0.0025 | 0.0025
N[C@]1(CNC(=O)c2ccc(F)cc2Cl)CCN(c2ncnc3[nH]cc(Cl)c23)C1 [Example 107, N-{[(3S)-3-amino-1-(5-chloro-7H-pyrrolo[2,3-d]pyrimidin-4-yl)pyrrolidin-3-yl]methyl}-2-chloro-4-fluorobenzamide] | 0.00025 to 0.0025 | 0.0011
N[C@]1(CNC(=O)c2ccccc2)CCN(c2ncnc3[nH]cc(Cl)c23)C1 [Example 108, N-{[(3S)-3-amino-1-(5-chloro-7H-pyrrolo[2,3-d]pyrimidin-4-yl)pyrrolidin-3-yl]methyl}benzamide] | 0.00251 to 0.01 | 0.00251
Cc1c[nH]c2ncnc(N3CC[C@](N)(CNC(=O)c4ccccc4)C3)c12 [Example 109, N-{[(3S)-3-amino-1-(5-methyl-7H-pyrrolo[2,3-d]pyrimidin-4-yl)pyrrolidin-3-yl]methyl}benzamide] | 0.00251 to 0.01 | 0.00586
CCc1c[nH]c2ncnc(N3CC[C@](N)(CNC(=O)c4ccccc4)C3)c12 [Example 110, N-{[(3S)-3-amino-1-(5-ethyl-7H-pyrrolo[2,3-d]pyrimidin-4-yl)pyrrolidin-3-yl]methyl}benzamide] | 0.00251 to 0.01 | 0.0073
N#Cc1c[nH]c2ncnc(N3CC[C@](N)(CNC(=O)c4ccccc4)C3)c12 [Example 111, N-{[(3S)-3-amino-1-(5-cyano-7H-pyrrolo[2,3-d]pyrimidin-4-yl)pyrrolidin-3-yl]methyl}benzamide] | 0.0101 to 0.1 | 0.0265
N[C@]1(CNC(=O)c2cccc(Cl)c2)CCN(c2ncnc3[nH]cc(Cl)c23)C1 [Example 112, N-{[(3S)-3-amino-1-(5-chloro-7H-pyrrolo[2,3-d]pyrimidin-4-yl)pyrrolidin-3-yl]methyl}-3-chlorobenzamide] | 0.00251 to 0.01 | 0.00376
N[C@]1(CNC(=O)c2c(F)cccc2Cl)CCN(c2ncnc3[nH]cc(Cl)c23)C1 [Example 113, N-{[(3S)-3-amino-1-(5-chloro-7H-pyrrolo[2,3-d]pyrimidin-4-yl)pyrrolidin-3-yl]methyl}-2-chloro-6-fluorobenzamide] | 0.0101 to 0.1 | 0.0332
Cc1c[nH]c2ncnc(N3CC[C@](N)(CNC(=O)c4ccc(F)c(F)c4)C3)c12 [Example 114] | 0.0101 to 0.1 | 0.0176
Cc1c[nH]c2ncnc(N3CC[C@](N)(CNC(=O)c4cccc(Cl)c4)C3)c12 [Example 115] | 0.00251 to 0.01 | 0.00998
Cc1c[nH]c2ncnc(N3CC[C@](N)(CNC(=O)c4c(F)cccc4Cl)C3)c12 [Example 116] | 0.0101 to 0.1 | 0.0681
Cc1cccc(C(=O)NC[C@@]2(N)CCN(c3ncnc4[nH]cc(C)c34)C2)c1Cl [Example 117] | 0.0101 to 0.1 | 0.0135
CCc1c[nH]c2ncnc(N3CC[C@](N)(CNC(=O)c4cccc(C)c4Cl)C3)c12 [Example 118] | 0.0101 to 0.1 | 0.0124
Cc1cccc(C(=O)NC[C@@]2(N)CCN(c3ncnc4[nH]cc(Cl)c34)C2)c1Cl [Example 119] | 0.00251 to 0.01 | 0.00785
Cc1c[nH]c2ncnc(N3CC[C@](N)(CNC(=O)c4c(F)ccc(F)c4F)C3)c12 [Example 120, N-{[(3S)-3-amino-1-(5-methyl-7H-pyrrolo[2,3-d]pyrimidin-4-yl)pyrrolidin-3-yl]methyl}-2,3,6-trifluorobenzamide] | 0.0101 to 0.1 | 0.0255
Cc1cccc(F)c1C(=O)NC[C@@]1(N)CCN(c2ncnc3[nH]cc(C)c23)C1 [Example 121] | 0.0101 to 0.1 | 0.0418
